Laboratory results: patent US20230035690A1, “MACHINE LEARNING TOOLS AND A PROCESS TO DISCOVER NEW NATURAL PRODUCTS BY LINKING GENOMES AND M[…] FUNGI” (Northwestern University, priority 2019, published 2023)

System: A. fumigatus IDO mutants
Experiment: growth inhibition test against A. fumigatus IDO mutants
Format: cell-based
Details: tested against A. fumigatus IDO mutants
From the text: In addition to re-purposing duplicated primary metabolism genes to have a biosynthetic role, fungi also utilize duplicated genes from primary metabolism as a form of self-resistance (Refs. A34, A35; incorporated by reference in their entireties). This Type II repurposing represents a particularly attractive avenue for drug discovery, as the duplicated gene will often provide insight into the mechanism of action of the encoded secondary metabolite. Several examples of such Type II repurposing have been discovered by targeting clusters with duplicate resistance targets. The proteasome inhibitor fellutamide B, for example, was discovered due to the presence of a duplicated proteasome subunit within its BGC (36). Similarly, the BGC encoding the methionine aminopeptidase inhibitor fumagillin contains both type I and type II methionine aminopeptidase genes in the gene cluster (FIG. 10) (Ref. A37; incorporated by reference in its entirety). While it is likely that many of the IDOs contained within the BGCs depicted in FIGS. 8 and 9 represent Type I biosynthetic enzymes that provide kynurenine for secondary metabolite synthesis, it is also possible that they represent Type II duplicated gene targets that serve to protect the producing organism against the biosynthetic product. […]

For Nc1ccccc1C(=O)NC1CC(=O)c2ccccc2NC1=O (stereo not shown) [terreazepine, 2-amino-N-(2,3,4,5-tetrahydro-2,5-dioxo-1H-1-benzazepin-3-yl)benzamide], the growth inhibitory activity was “no growth inhibitory activity was observed”.
